According to patent US5286895A, “Cholesterol lowering compounds” (Merck & Co., Inc., priority 1992, dated 1994):

Columns and labels:
[1] = target: T1, squalene synthetase (Rattus norvegicus, UniProt Q02769); experiment: Squalene synthetase assay (rat liver microsomes, [4-14C]farnesyl-pyrophosphate); type: biochemical; conditions: 30° C., 20 minutes, read-out: IC50, squalene synthetase inhibition
T1 construct: The resulting microsomal pellet was resuspended in a volume of the above homogenizing buffer; from tissue; host or cells: rat liver microsomes (male Charles River CD rats fed 0.1% lovastatin)
T1 sequence (Q02769 1-416): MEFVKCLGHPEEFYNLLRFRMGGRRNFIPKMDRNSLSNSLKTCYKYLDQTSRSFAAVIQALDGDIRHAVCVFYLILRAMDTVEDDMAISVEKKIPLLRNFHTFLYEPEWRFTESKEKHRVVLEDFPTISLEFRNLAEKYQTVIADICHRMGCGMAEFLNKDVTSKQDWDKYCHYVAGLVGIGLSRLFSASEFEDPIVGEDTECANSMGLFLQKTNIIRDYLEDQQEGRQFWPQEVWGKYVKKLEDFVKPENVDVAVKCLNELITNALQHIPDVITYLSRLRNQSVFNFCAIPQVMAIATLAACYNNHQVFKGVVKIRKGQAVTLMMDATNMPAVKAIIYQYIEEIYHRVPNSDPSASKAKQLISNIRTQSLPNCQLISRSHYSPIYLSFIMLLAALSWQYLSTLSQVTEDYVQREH
Procedure: Male, Charles River CD rats (120 to 150 g) were fed a diet containing 0.1% lovastatin for 4 days. The livers from these rats were homogenized in 5 volumes (ml/g) of ice cold 50 mM HEPES (4-(2-hydroxyethyl)-1-piperazine-ethanesulfonic acid), 5 mM EDTA(ethylenediaminetetraacetic acid) pH 7.5 with a Potter-Elvehjem type tissue grinder. The homogenate was centrifuged twice at 20,000× g for 15 minutes at 4° C., discarding the pellet each time. The supernatant was then centrifuged at 100,000× g for 1 hour at 4° C. The resulting microsomal pellet was resuspended in a volume of the above homogenizing buffer equal to one-fifth the volume of the original homogenate. This microsomal preparation has a protein concentration of about 7 mg/ml. The microsomal suspensions were stored in aliquots at -70° C. Squalene synthetase activity in these aliquots is stable for at least several months.
Reaction were performed in 16×125 mm screw cap test tubes. A batch assay mix was prepared from the following solution:
This assay mix was degassed under a vacuum and flushed with N2. […] Ten ml of scintillation fluid was added to the heptane solution and radioactivity was determined by liquid scintillation counting.
Percent inhibition is calculated by the formula: [formula]
IC50 values were determined by plotting the log of the concentration of the test compound versus the percentage inhibition.

[2] = system: cholesterol synthesis; experiment: Measurement of inhibition of cholesterol synthesis in mice ([3H]mevalonolactone incorporation in liver); type: in vivo; conditions: female Swiss-Webster mice, subcutaneous
Procedure: Female Swiss-Webster mice, approximately 25 grams, were dosed subcutaneously with the test compound or just with saline for controls. The tri-sodium salt of Compound A was dissolved in 0.9% NaCl and administered in a volume of less than 0.1 ml. Thirty minutes after receiving a dose of the test compound or saline for the controls, the mice were subcutaneously administered a dose of 0.5 uCi of R,S-[5-^3 H]mevalonolactone (35 Ci/mmol). The tracer mevalonolactone was dissolved in 0.9% NaCl and administered in a volume of 0.05 ml. Thirty minutes after receiving the dose of mevalonolactone, the animals were euthanized, and the livers were removed and saponified in a solution of 4 ml of 40% KOH and 2 ml of 95% ethanol overnight at 65° C. The saponified livers were extracted with two 5 ml volumes of petroleum ether. Incorporation of ^3 H into this petroleum ether fraction was used to measure cholesterol synthesis. Inhibition of cholesterol synthesis was determined by comparing the incorporation of ^3 H in the petroleum ether fraction in control animals to the incorporation in the petroleum ether fraction in the compound test animals.

- IC50 [1]: ~0.3 µM
SMILES: C/C(=C\C(C)Cc1ccccc1)CCCCCC(C(=O)O)C(O)(CC(=O)O)C(=O)O (stereo not drawn) [Compound A]
- ED50 ([2]; Mus musculus, sc, tri-sodium salt in 0.9% NaCl, dosed 30 min before [3H]mevalonolactone): ~15 mg/kg
- inhibition of cholesterol synthesis in mice (in words) [2]: potent inhibitor of cholesterol synthesis in mice
